Reference: patent US20250360145A1, “CSF-1R INHIBITORS AND USES THEREOF” (Myrobalan Therapeutics, Inc., priority 2022, published 2025)
Read-outs that look alike come from different tables or passages of the source.

Assays:
EOC2 cell = assay: Cell proliferation assay, EOC2; format: cell-based, mouse; conditions: EOC2 cells, 72 hours treatment, read-out: ECO2 EC50
CSF-1R = CSF-1R (Homo sapiens (Human), UniProt P07333); assay: Biochemical HTRF kinase assay, CSF-1R; conditions: recombinant human CSF-1R;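 also: enzyme incubated with inhibitor plus a substrate and ATP mix for one hour at room temperature before HTRF detection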
c-Kit = c-Kit (Homo sapiens (Human), UniProt P10721); assay: Biochemical HTRF kinase assay, c-Kit; conditions: for IC50: recombinant human protein, read-out: cKit IC50; for cKit Fold: selectivity: IC50 of cKit as multiple of IC50 of CSF-1R;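 as to all read-outs here: enzyme reaction with substrate and ATP run in 384-well plates for 1 hour at room temperature, kinase activity detected by HTRF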
PDGFRβ = PDGFRβ (Homo sapiens (Human), UniProt P09619); assay: Biochemical HTRF kinase assay, PDGFRβ; conditions: for IC50: recombinant human protein, read-out: PDGFR-1β IC50; for PDGFR-1β Fold: selectivity: IC50 of PDGFR-1β as multiple of IC50 of CSF-1R;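 as to all read-outs here: kinase reaction with substrate/ATP mix run 1 h at room temperature in 384-well format, HTRF signal detection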
FLT3 = FLT3 (Homo sapiens (Human), UniProt P36888); assay: Biochemical HTRF kinase assay, FLT3; conditions: for IC50: recombinant human protein; for FLT3 Fold: selectivity: IC50 of FLT3 as multiple of IC50 of CSF-1R
[1] = tested on: Ba/F3_CSF-1R (stably expressing human CSF-1R kinase); assay: Cell proliferation assay, Ba/F3_CSF-1R; format: cell-based
[2] = BaF3, 72 h, Ba/F3_CSF-1R cells, 72 hours treatment, read-out: CSF-1R BaF3 EC50

Chain of c-Kit (P10721 26-976): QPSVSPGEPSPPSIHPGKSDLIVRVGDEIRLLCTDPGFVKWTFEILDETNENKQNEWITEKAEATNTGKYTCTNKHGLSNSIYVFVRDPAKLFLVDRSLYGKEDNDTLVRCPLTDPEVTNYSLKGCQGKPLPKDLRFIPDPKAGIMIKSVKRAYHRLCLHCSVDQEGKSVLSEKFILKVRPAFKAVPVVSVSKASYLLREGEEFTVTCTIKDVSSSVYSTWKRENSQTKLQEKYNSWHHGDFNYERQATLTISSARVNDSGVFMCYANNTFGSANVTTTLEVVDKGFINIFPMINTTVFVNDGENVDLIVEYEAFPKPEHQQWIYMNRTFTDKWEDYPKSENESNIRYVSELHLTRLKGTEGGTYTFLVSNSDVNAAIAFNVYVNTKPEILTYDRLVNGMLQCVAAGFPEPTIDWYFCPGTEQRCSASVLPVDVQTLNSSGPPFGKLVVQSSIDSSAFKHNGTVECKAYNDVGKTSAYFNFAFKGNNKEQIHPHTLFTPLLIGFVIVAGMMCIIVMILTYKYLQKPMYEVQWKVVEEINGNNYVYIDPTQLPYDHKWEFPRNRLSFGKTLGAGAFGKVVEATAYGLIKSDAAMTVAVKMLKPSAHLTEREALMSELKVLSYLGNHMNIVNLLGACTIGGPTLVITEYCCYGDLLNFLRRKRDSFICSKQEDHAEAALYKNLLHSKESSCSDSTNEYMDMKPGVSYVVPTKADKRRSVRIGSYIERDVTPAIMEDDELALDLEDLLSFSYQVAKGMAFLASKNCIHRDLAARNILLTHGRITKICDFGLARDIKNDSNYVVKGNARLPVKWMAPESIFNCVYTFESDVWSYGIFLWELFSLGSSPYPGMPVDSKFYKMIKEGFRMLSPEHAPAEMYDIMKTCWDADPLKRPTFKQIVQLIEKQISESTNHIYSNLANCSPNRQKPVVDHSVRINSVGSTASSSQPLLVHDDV
Chain of CSF-1R (P07333 20-972): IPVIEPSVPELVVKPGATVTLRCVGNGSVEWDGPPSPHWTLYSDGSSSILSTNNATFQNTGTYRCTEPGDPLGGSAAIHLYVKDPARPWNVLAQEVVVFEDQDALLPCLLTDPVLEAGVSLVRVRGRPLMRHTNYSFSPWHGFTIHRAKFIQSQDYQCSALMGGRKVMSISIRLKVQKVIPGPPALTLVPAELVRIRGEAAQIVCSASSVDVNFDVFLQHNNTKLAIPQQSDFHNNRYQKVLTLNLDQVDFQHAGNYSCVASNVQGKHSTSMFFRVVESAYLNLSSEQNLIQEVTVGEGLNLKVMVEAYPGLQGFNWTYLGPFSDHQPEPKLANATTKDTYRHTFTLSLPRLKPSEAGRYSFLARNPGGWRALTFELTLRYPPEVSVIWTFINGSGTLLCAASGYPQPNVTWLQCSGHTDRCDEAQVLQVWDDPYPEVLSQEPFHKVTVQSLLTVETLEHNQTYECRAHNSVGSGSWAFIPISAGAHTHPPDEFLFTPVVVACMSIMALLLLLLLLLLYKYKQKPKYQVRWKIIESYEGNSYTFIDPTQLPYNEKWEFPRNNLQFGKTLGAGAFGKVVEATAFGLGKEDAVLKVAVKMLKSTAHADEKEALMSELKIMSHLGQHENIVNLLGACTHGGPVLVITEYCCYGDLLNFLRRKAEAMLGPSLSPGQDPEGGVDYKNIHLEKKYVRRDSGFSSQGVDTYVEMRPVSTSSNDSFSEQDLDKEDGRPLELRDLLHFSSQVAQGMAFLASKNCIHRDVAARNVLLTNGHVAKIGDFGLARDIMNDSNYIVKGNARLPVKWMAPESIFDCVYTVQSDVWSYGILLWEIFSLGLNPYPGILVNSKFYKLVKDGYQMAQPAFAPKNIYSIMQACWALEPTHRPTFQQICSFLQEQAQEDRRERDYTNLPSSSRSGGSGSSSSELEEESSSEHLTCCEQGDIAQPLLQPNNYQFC
Chain of PDGFRβ (P09619 33-1106): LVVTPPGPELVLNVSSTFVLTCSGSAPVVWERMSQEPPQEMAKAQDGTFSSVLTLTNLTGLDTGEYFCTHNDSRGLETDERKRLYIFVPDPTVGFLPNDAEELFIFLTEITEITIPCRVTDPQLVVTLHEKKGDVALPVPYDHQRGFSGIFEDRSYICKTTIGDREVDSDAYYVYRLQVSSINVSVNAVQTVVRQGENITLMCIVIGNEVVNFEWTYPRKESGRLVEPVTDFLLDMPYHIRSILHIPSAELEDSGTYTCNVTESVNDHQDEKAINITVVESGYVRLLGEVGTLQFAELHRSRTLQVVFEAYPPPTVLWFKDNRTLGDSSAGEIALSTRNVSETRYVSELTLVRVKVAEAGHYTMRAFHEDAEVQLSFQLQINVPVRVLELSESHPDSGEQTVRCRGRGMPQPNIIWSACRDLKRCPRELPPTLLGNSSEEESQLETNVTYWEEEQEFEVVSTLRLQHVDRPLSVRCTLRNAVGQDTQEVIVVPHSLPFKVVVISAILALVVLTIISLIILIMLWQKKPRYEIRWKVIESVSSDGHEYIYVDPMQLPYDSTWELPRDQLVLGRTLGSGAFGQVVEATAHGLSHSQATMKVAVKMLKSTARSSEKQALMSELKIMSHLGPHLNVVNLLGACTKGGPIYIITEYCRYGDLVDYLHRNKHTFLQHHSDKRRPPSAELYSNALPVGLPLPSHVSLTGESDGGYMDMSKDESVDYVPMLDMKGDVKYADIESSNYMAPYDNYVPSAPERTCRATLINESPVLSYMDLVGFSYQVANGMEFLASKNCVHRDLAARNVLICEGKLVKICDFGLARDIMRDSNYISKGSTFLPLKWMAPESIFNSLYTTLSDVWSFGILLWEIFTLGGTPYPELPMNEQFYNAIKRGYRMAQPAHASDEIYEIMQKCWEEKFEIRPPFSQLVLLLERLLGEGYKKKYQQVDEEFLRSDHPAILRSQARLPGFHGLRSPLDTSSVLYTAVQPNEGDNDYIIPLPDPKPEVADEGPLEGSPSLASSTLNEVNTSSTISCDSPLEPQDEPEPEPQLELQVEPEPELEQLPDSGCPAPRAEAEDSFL
Chain of FLT3 (P36888 27-993): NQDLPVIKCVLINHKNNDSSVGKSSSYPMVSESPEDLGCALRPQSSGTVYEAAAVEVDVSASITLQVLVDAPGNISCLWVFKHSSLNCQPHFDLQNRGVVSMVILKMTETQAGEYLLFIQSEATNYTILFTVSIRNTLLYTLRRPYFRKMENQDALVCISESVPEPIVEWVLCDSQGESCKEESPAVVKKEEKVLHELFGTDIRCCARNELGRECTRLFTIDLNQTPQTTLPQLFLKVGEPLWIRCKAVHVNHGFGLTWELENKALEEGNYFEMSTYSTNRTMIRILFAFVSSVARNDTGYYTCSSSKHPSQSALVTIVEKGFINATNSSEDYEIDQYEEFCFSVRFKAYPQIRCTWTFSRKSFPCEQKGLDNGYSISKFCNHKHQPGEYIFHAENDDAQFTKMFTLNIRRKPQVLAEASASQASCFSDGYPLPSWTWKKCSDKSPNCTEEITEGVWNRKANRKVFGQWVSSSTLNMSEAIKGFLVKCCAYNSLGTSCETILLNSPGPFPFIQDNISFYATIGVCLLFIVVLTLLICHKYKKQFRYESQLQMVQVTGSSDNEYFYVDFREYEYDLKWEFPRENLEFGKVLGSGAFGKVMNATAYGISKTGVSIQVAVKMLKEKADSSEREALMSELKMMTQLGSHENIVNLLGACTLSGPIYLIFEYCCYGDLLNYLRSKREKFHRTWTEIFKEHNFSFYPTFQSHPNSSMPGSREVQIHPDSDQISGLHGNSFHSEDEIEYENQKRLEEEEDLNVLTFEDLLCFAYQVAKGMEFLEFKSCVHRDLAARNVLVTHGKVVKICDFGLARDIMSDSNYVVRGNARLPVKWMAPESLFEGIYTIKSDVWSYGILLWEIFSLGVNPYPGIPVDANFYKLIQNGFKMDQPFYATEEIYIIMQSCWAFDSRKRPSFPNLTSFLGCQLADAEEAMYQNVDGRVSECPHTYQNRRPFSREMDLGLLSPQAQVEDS

Structure (SMILES) | EC50 (EOC2 cell) | IC50 (CSF-1R; Table 2) | IC50 (CSF-1R; Table 3) | IC50 (c-Kit) | cKit Fold (c-Kit) | IC50 (PDGFRβ) | PDGFR-1β Fold (PDGFRβ) | IC50 (FLT3) | FLT3 Fold (FLT3) | EC50 [1, 2] | EC50 ([1]; Ba/F3_CSF-1R cells, 72 hours treatment, read-out: CSF-1R BaF3 EC50) | EC50 (EOC2 cell; Mus musculus, 72 h) | EC50 ([1]; BaF3, 72 h, read-out: CSF-1R BaF3 EC50 (nM))
COc1cnc2c(Cc3cnc(OCc4ccc([C@H]5CC5(F)F)cn4)c(OC)c3)ccnc2c1 (stereo in doubt) [Example 80] | 29.8 nM | 4 nM | 4 nM | 214 nM | 53.4 fold | 49 nM | 12.3 fold | > 1000 nM | >100 fold | 50.7 nM |  |  | 
COc1cnc2c(Cc3cnc(OCc4ccc([C@H]5CC5(F)F)cn4)c(OC)c3)ccnc2c1 (stereo in doubt) [Example 81] | 60.9 nM | 5.1 nM | 5.1 nM | > 1000 nM | >100 fold | 371 nM | 72.7 fold | > 1000 nM | >100 fold |  | 25.8 nM |  | 
COc1ccc(COc2ncc(Cc3ccnc4cccnc34)cc2OC)nc1 [Example 15, 4-((5-methoxy-6-((5-methoxypyridin-2-yl)methoxy)pyridin-3-yl)methyl)-1,5-naphthyridine] |  | 9.8 nM | 9.8 nM | > 1000 nM | >100 fold | > 1000 nM | >100 fold | > 1000 nM | >100 fold | 437 nM |  | 253 nM | 
COc1cnc2c(Cc3cnc(OCc4ccc(C)cn4)c(OC)c3)ccnc2c1 [Example 55] |  | 3.2 nM | 3.2 nM | 785 nM | >100 fold | 322 nM | >100 fold | > 1000 nM | >100 fold | 155 nM |  | 45.4 nM | 
COc1cnc2c(Cc3cnc(OCc4ccc(OC(F)F)cn4)c(OC)c3)ccnc2c1 [Example 56] |  | 2.2 nM | 2.2 nM | > 1000 nM | >100 fold | 312 nM | >100 fold | > 1000 nM | >100 fold | 131 nM |  | 31.2 nM | 
COc1cnc2c(Cc3cnc(OCc4ccc(C5CC5)cn4)c(OC)c3)ccnc2c1 [Example 59] |  | 4.4 nM | 4.4 nM | > 1000 nM | >100 fold | 349 nM | 79 fold | > 1000 nM | >100 fold | 41.5 nM |  | 42.3 nM | 
COc1cnc2c(Cc3cnc(OCc4ccc(C5CC5(F)F)cn4)c(OC)c3)ccnc2c1 (stereo not shown) [Example 66] |  | 3 nM | 3 nM | 948 nM | >100 fold | 73.6 nM | 24.5 fold | > 1000 nM | >100 fold | 89.1 nM |  | 62.7 nM | 
COc1cnc2c(Cc3cnc(OCc4cc5n(n4)CCC5)c(OC)c3)ccnc2c1 [Example 72] |  | 2.2 nM | 2.2 nM | > 1000 nM | >100 fold | > 1000 nM | >100 fold | > 1000 nM | >100 fold | 74.6 nM |  | 58.9 nM | 
[2H]C([2H])([2H])Oc1cc(Cc2ccnc3cc(OC)cnc23)cnc1OCc1ccc(OC)cn1 [Example 74] |  | 3.3 nM | 3.3 nM | > 1000 nM | >100 fold | > 1000 nM | >100 fold | > 1000 nM | >100 fold | 100 nM |  | 33.3 nM | 
[2H]C([2H])([2H])Oc1ccc(COc2ncc(Cc3ccnc4cc(OC)cnc34)cc2OC)nc1 [Example 78] |  | 6.7 nM | 6.7 nM | > 1000 nM | >100 fold | 947 nM | >100 fold | > 1000 nM | >100 fold | 143 nM |  | 48.4 nM | 
COc1cnc2c(Cc3cnc(OCc4ccc5nccn5n4)c(OC)c3)ccnc2c1 [Example 129] |  | 42.7 nM |  |  |  |  |  |  |  | 307 nM |  | 166 nM | 
COc1ccc(COc2ncc(Cc3ccnc4cc(-c5cnn(C)c5)cnc34)cc2OC)nc1 [Example 130] |  | 1.6 nM |  |  |  |  |  |  |  | 2 nM |  | 1.5 nM | 
COc1cnc2c(Cc3cnc(OCc4nc5cccnc5n4C)c(OC)c3)ccnc2c1 [Example 132] |  | 879 nM |  |  |  |  |  |  |  | > 1000 nM |  | > 1000 nM | 
COc1ccc(COc2ncc(Cc3ccnc4cc(C(=O)N(C)C)cnc34)cc2OC)nc1 [Example 133] |  | 58.8 nM |  |  |  |  |  |  |  | 443 nM |  | 312 nM | 
COc1ccc(COc2ncc(Cc3ccnc4cc(N5CCNCC5)cnc34)cc2OC)nc1 [Example 135] |  | 22.4 nM |  |  |  |  |  |  |  | 25.8 nM |  | 66.5 nM | 
COc1ccc(COc2ncc(Cc3ccnc4cc(-c5cnc(C)s5)cnc34)cc2OC)nc1 [Example 138, 5-(8-((5-methoxy-6-((5-methoxypyridin-2-yl)methoxy)pyridin-3-yl)methyl)-1,5-naphthyridin-3-yl)-2-methylthiazole] |  | 12.6 nM |  |  |  |  |  |  |  |  |  | 2.2 nM | 1.8 nM
COc1ccc(COc2ncc(Cc3ccnc4cc(-c5ccccn5)cnc34)cc2OC)nc1 [Example 139] |  | 11.3 nM |  |  |  |  |  |  |  | 8.8 nM |  | 7.9 nM | 
